≈ marks a conversion by molar mass, not a printed value.
Experiments:
[1] = target: T1, Cyclin-dependent kinase 5/CDK5 activator 1 (Homo sapiens, UniProt Q00535); test: Inhibition of full length N-terminal GST fused human CDK5(1 to 292 residues)/ p25 (99 to 307 residues) expressed in baculovirus expression system using FL peptide as substrate preincubated for 30 mins followed by substrate addition further incubated for 60 mins by EZ reader method
[2] = target: CDK2/Cyclin A2 (Homo sapiens, UniProt P24941); test: Inhibition of full length N-terminal GST tagged human CDK2(1 to 298 residues)/CyclinA2 (1 to 432 residues) expressed in baculovirus expression system using FL peptide as substrate preincubated for 30 mins followed by substrate addition further incubated for 120 mins by EZ reader method
[3] = species: Homo sapiens; test: Selectivity ratio of IC50 for inhibition of full length N-terminal GST tagged human CDK2(1 to 298 residues)/CyclinA2 (1 to 432 residues) to IC50 for inhibition of full length N-terminal GST fused human CDK5(1 to 292 residues)/ p25 (99 to 307 residues)
[4] = target: CDK6/cyclin D3 (Homo sapiens, UniProt Q00534); test: (§1) Inhibition of full length N-terminal GST fused human CDK6 (1 to 326 residues)/CyclinD3 (1 to 292 residues) expressed in baculovirus expression system using FL peptide as substrate preincubated for 30 mins followed by substrate addition and further incubated for 120 mins by EZ reader method
[5] = target: CDK7/Cyclin H/MNAT1 (Homo sapiens, UniProt P50613); test: as §1, with “CDK7” for “CDK6”, “346 residues)/CyclinH” for “326 residues)/CyclinD3”, “323 residues)/ MAT1 (1 to 309” for “292”, “90” for “120”
[6] = target: CDK9/cyclin T1 (Homo sapiens, UniProt P50750); test: as §1, with “CDK9(1 to 372 residues)/ His- tagged CyclinT1” for “CDK6”, “726” for “326 residues)/CyclinD3 (1 to 292”, “90” for “120”
[7] = target: T1, Cyclin-dependent kinase 5/CDK5 activator 1; test: Inhibition of Nano-Luc fused human full length CDK5/P35 transfected in HEK293 cells incubated for 1 hr by NanoBRET assay; assay type: cell-based
[8] = test system: HEK-293T; test: Antiproliferative activity against human HEK293T cells assessed as cell growth inhibition incubated for 48 hrs; assay type: functional, cell-based
[9] = Kinetic aqueous solubility of compound in PBS at pH 7.4 incubated for 2 hrs by LC-MS/MS analysis; assay type: physicochemical; conditions: read-out: Kinetic_solubility
[10] = test system: P-gp; test: Substrate activity at P-gp in dog MDCKII-MDR1 cells assessed as efflux ratio of permeability at 1 uM incubated for 120 mins; assay type: ADME, cell-based, Canis lupus familiaris; conditions: MDCK-MDR1
[11] = Apparent permeability across apical to basolateral side in dog MDCKII-MDR1 cells at 1 uM incubated for 120 mins; assay type: ADME, cell-based, Canis lupus familiaris; conditions: MDCK-MDR1
[12] = Plasma protein binding in Sprague-Dawley rat at 1 uM incubated for 6 hrs by equilibrium dialysis based LC-MS/MS analysis; assay type: ADME, cell-free; conditions: read-out: PPB (converted)
[13] = Metabolic stability human hepatocytes assessed as intrinsic clearance at 1 uM measured up to 120 mins by LC-MS/MS analysis; assay type: ADME, cell-based, Hepatocyte; conditions: read-out: CLH
[14] = Metabolic stability in CD-1 mouse hepatocytes assessed as intrinsic clearance at 1 uM measured up to 120 mins by LC-MS/MS analysis; assay type: ADME, cell-based, Hepatocyte; conditions: read-out: CLH
[15] = Metabolic stability in Sprague-Dawley rat hepatocytes assessed as intrinsic clearance at 1 uM measured up to 120 mins by LC-MS/MS analysis; assay type: ADME, cell-based, Hepatocyte; conditions: read-out: CLH
[16] = Clearance in Sprague-Dawley rat at 1 mg/kg, iv measured upto 24 hrs by LC-MS/MS analysis; assay type: ADME, organism-based; conditions: in vivo
[17] = Volume of distribution at steady state in Sprague-Dawley rat at 1 mg/kg, iv measured upto 24 hrs by LC-MS/MS analysis; assay type: ADME, organism-based; conditions: in vivo, read-out: Vdss
[18] = Half life in Sprague-Dawley rat at 1 mg/kg, iv measured upto 24 hrs by LC-MS/MS analysis; assay type: ADME, organism-based; conditions: in vivo
[19] = AUC (0 to 24 hrs) in Sprague-Dawley rat at 1 mg/kg, iv measured upto 24 hrs by LC-MS/MS analysis; assay type: ADME, organism-based; design: route intravenous, dose 1 mg/kg, time <=24; conditions: in vivo
[20] = Cmax in Sprague-Dawley rat at 3 mg/kg, po measured upto 24 hrs by LC-MS/MS analysis; assay type: ADME, organism-based; design: route oral, dose 3 mg/kg, time <=24; conditions: in vivo
[21] = AUC (0 to 24 hrs) in Sprague-Dawley rat at 3 mg/kg, po measured upto 24 hrs by LC-MS/MS analysis; assay type: ADME, organism-based; design: route oral, dose 3 mg/kg, time <=24; conditions: in vivo
[22] = Oral bioavailability in Sprague-Dawley rat at 3 mg/kg measured upto 24 hrs by LC-MS/MS analysis; assay type: ADME, organism-based; conditions: in vivo
[23] = species: Homo sapiens; test: Selectivity ratio of IC50 for human CDK6 to IC50 for human CDK5
[24] = species: Homo sapiens; test: Selectivity ratio of IC50 for human CDK7 to IC50 for human CDK5
[25] = species: Homo sapiens; test: Selectivity ratio of IC50 for human CDK9 to IC50 for human CDK5
[26] = Cmax in Sprague-Dawley rat at 10 mg/kg, po measured upto 24 hrs by LC-MS/MS analysis; assay type: ADME, organism-based; design: route oral, dose 10 mg/kg, time <=24; conditions: in vivo
[27] = AUC (0 to 24 hrs) in Sprague-Dawley rat at 10 mg/kg, po measured upto 24 hrs by LC-MS/MS analysis; assay type: ADME, organism-based; design: route oral, dose 10 mg/kg, time <=24; conditions: in vivo
[28] = Oral bioavailability in Sprague-Dawley rat at 10 mg/kg measured upto 24 hrs by LC-MS/MS analysis; assay type: ADME, organism-based; conditions: in vivo

T1 sequence (Q00535 whole entry, the tested form may be a part): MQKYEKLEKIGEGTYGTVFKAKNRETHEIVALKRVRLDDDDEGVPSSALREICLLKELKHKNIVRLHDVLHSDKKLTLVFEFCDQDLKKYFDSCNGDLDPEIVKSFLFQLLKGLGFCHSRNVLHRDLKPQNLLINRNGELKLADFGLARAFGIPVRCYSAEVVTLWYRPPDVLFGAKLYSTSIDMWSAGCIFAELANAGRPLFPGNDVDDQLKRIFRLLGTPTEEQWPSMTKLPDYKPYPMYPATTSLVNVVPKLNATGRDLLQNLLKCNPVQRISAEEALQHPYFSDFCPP
T1 sequence (Q15078 whole entry, further chain, the tested form may be a part): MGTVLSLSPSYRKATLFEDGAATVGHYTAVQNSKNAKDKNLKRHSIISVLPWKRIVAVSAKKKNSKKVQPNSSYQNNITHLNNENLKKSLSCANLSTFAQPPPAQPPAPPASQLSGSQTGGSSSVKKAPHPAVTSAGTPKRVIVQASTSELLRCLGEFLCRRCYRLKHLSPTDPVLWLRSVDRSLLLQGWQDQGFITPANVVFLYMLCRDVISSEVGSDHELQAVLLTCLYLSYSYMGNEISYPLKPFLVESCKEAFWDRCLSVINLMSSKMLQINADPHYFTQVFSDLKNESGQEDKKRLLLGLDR
Chain of CDK7/Cyclin H/MNAT1 (P51946 whole entry, the tested form may be a part): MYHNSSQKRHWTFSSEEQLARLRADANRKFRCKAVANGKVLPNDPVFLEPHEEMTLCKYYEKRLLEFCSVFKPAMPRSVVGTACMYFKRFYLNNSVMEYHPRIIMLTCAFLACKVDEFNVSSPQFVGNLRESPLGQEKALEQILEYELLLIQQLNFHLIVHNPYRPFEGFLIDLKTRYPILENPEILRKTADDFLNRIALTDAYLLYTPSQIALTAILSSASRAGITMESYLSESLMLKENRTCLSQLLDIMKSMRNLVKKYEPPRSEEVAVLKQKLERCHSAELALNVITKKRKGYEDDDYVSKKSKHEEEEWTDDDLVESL
Chain of CDK7/Cyclin H/MNAT1 (P50613 whole entry, the tested form may be a part): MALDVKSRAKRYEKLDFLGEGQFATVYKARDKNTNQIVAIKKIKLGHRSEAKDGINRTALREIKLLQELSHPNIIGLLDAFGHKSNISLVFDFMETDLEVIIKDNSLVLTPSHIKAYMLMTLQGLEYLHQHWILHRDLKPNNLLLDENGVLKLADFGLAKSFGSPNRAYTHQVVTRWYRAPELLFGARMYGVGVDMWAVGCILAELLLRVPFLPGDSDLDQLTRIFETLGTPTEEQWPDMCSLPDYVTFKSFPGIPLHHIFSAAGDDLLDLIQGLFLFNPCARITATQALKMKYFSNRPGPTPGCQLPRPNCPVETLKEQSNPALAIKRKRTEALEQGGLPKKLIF
Chain of CDK7/Cyclin H/MNAT1 (P51948 whole entry, further chain, the tested form may be a part): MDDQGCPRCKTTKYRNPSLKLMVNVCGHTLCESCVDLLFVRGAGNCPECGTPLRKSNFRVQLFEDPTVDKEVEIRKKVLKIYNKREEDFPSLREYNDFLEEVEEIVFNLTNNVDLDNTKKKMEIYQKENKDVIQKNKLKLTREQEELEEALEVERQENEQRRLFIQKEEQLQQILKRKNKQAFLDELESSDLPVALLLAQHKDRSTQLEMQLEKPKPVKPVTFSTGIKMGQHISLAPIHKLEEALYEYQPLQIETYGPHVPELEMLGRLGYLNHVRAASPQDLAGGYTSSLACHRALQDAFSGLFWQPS
Chain of CDK9/cyclin T1 (O60563 whole entry, the tested form may be a part): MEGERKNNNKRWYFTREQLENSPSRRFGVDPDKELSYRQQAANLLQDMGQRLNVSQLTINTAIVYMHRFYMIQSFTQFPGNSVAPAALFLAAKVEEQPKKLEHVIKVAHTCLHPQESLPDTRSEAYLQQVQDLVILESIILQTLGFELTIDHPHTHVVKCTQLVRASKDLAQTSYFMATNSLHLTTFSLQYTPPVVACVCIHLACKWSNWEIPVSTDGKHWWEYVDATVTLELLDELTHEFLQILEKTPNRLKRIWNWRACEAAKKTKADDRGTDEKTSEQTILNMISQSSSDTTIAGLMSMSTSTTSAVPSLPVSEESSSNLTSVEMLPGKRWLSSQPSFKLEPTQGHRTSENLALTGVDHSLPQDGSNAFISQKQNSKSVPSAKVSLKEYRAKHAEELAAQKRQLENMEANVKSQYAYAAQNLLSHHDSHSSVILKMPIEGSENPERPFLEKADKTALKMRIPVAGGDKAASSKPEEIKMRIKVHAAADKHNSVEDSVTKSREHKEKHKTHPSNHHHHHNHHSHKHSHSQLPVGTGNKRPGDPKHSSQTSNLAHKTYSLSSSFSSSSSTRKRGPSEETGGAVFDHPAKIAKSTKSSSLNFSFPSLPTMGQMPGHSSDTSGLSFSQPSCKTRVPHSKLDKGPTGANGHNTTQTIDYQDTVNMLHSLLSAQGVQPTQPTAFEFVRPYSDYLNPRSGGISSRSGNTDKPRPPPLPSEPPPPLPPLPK
Chain of CDK9/cyclin T1 (P50750 whole entry, the tested form may be a part): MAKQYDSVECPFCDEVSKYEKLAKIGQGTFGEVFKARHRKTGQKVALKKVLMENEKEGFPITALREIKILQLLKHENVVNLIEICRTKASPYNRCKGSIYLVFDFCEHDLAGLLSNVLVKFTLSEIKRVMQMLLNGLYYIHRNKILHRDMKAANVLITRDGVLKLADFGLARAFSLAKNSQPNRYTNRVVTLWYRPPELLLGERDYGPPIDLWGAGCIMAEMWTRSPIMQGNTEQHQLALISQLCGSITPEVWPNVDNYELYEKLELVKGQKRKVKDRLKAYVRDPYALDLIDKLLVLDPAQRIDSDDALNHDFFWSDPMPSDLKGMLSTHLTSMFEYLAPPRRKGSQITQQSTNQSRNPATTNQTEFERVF
Chain of CDK6/cyclin D3 (P30281 whole entry, the tested form may be a part): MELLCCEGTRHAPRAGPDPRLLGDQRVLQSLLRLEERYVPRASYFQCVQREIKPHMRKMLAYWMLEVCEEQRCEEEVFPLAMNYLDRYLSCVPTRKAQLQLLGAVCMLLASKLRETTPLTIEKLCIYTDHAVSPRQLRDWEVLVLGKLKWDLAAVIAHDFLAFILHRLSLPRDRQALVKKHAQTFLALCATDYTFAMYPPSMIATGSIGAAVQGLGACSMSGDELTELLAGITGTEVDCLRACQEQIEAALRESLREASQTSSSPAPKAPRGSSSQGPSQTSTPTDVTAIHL
Chain of CDK6/cyclin D3 (Q00534 whole entry, the tested form may be a part): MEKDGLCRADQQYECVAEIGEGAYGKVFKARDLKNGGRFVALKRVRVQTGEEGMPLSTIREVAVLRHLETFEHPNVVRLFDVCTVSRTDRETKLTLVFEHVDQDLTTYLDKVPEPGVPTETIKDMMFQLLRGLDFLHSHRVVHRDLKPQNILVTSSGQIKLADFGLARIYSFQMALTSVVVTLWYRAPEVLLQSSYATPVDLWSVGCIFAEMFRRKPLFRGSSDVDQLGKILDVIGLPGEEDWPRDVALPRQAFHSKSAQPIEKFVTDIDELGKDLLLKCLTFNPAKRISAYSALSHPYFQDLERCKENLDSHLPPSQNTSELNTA

IC50 [1] [µM] | IC50 [2] [µM] | Ratio IC50 [3] | IC50 [4] [µM] | IC50 [5] [µM] | IC50 [6] [µM] | solubility kinetic at 2 h [9] [µM] | efflux ratio at 2 h, 1 µM [10] | Papp A→B at 2 h, 1 µM [11] [×10⁻⁶ cm/s] | fraction unbound at 6 h, 1 µM [12] | CLint scaled at 1 µM [13] [mL/min/kg] | CLint scaled at 1 µM [14] [mL/min/kg] | CLint scaled at 1 µM [15] [mL/min/kg] | clearance [16] [mL/min/kg] | Vd [17] [L/kg] | half-life [18] [h] | AUC(0-t) [19] [ng·h/mL] | Cmax [20] [ng/mL] | AUC(0-t) [21] [ng·h/mL] | bioavailability [22] [%] | SMILES | other results
0.0032 | 0.301 | 94 | 0.125 | 0.078 | 0.154 | 274 (≈ 128 µg/mL) | 38 | 7.9 | 0.53 | < 7 | 69 | < 13 | 53 | 9.4 | 2.7 | 305 | 19 | 143 | 16 | CN1CCC([C@@](C)(O)c2ccc3cnc(Nc4cc(N5CCOCC5)ncc4F)cc3n2)CC1 | IC50 [7]: 0.0012 µM; IC50 [8]: > 10 µM
0.0023 | 0.211 | 92 | 3.2 | 0.718 | 0.894 | 259 (≈ 116 µg/mL) | 9 | 18 | 0.37 | 13 | 89 | 17 | 12 | 7.3 | 7.6 | 1300 | 83 | 999 | 25 | CN1CCC([C@@](C)(O)c2ccc3cnc(Nc4cc(C(F)(F)F)ncc4F)cc3n2)CC1 | Ratio IC50 [23]: 1390; Ratio IC50 [24]: 312; Ratio IC50 [25]: 389; Cmax [26]: 350 ng/mL; AUC(0-t) [27]: 5320 ng·h/mL; bioavailability [28]: 41%
